Test results from the supplement of paper PMC5908809.

What was measured:
SNK-6 (IL-2 2.5 ng/mL) [1] = assay: drug sensitivity score (DSS) (DSS units); higher = more sensitive; extreme values may be limits of the assay; conditions: 72 h
KAI3 (IL-2 2.5 ng/mL) [2] = assay: as above; conditions: 72 h
NK-92 (IL-2 2.5 ng/mL) [3] = assay: as above; conditions: 72 h
[4] = system: normal primary NK cells, pool 1 (3 donors), resting (IL-2 0 ng/mL); assay: as above; conditions: 72 h
NKL (IL-2 2.5 ng/mL) [5] = assay: as above; conditions: 72 h
DERL-7 (IL-2 2.5 ng/mL) [6] = assay: as above; conditions: 72 h
IMC-1 (IL-2 20 ng/mL) [7] = assay: as above; conditions: 72 h
YT (IL-2 2.5 ng/mL) [8] = assay: as above; conditions: 72 h
[9] = system: normal primary NK cells, pool 1 (3 donors) (IL-2 2.5 ng/mL); assay: as above; conditions: 72 h
KHYG-1 (IL-2 2.5 ng/mL) [10] = assay: as above; conditions: 72 h
NK-YS (IL-2 2.5 ng/mL) [11] = assay: as above; conditions: 72 h
[12] = system: normal primary NK cells, pool 2 (3 donors) (IL-2 2.5 ng/mL); assay: as above; conditions: 72 h
[13] = system: normal primary NK cells, pool 3 (3 donors) (IL-2 2.5 ng/mL); assay: as above; conditions: 72 h
[14] = system: normal NK cells expanded with K562-aAPC; assay: as above; conditions: 72 h; IL-2 2.5 ng/mL
Method: (§1)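 Drug sensitivity and resistance testing on K562-aAPC-expanded normal NK cells: 5 concentrations (10-fold steps over a 10,000-fold range), 72 h at 37 °C, viability by CellTiter-Glo normalised to DMSO and benzethonium chloride controls; DSS from the fitted curve.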

[15] = system: normal NK cells expanded with K562-aAPC; assay: percent inhibition of viability; higher = more inhibition; conditions: 72 h, IL-2 2.5 ng/mL
Method: as §1

SNK-6 (IL-2 2.5 ng/mL) [16] = assay: as above; conditions: 72 h
KAI3 (IL-2 2.5 ng/mL) [17] = assay: as above; conditions: 72 h
NK-92 (IL-2 2.5 ng/mL) [18] = assay: as above; conditions: 72 h
[19] = system: normal primary NK cells, pool 1 (3 donors), resting (IL-2 0 ng/mL); assay: as above; conditions: 72 h
NKL (IL-2 2.5 ng/mL) [20] = assay: as above; conditions: 72 h
DERL-7 (IL-2 2.5 ng/mL) [21] = assay: as above; conditions: 72 h
IMC-1 (IL-2 20 ng/mL) [22] = assay: as above; conditions: 72 h
YT (IL-2 2.5 ng/mL) [23] = assay: as above; conditions: 72 h
[24] = system: normal primary NK cells, pool 1 (3 donors) (IL-2 2.5 ng/mL); assay: as above; conditions: 72 h
KHYG-1 (IL-2 2.5 ng/mL) [25] = assay: as above; conditions: 72 h
NK-YS (IL-2 2.5 ng/mL) [26] = assay: as above; conditions: 72 h
[27] = system: normal primary NK cells, pool 2 (3 donors) (IL-2 2.5 ng/mL); assay: as above; conditions: 72 h
[28] = system: normal primary NK cells, pool 3 (3 donors) (IL-2 2.5 ng/mL); assay: as above; conditions: 72 h

O=[N+]([O-])c1ccc2c(c1)S(=O)(=O)C=C2 [Stattic] (max concentration tested 50000 nM)
Conditions	drug sensitivity score
DERL-7 (IL-2 2.5 ng/mL) [6]	19.4
IMC-1 (IL-2 20 ng/mL) [7]	4.71
KAI3 (IL-2 2.5 ng/mL) [2]	19.9
KHYG-1 (IL-2 2.5 ng/mL) [10]	17.5
NK-92 (IL-2 2.5 ng/mL) [3]	17.3
NK-YS (IL-2 2.5 ng/mL) [11]	9.96
NKL (IL-2 2.5 ng/mL) [5]	11.8
SNK-6 (IL-2 2.5 ng/mL) [1]	16.6
YT (IL-2 2.5 ng/mL) [8]	17.3
[4]	19.4
[9]	19.9
[12]	17.7
[13]	17.1
[14]	17.4

percent inhibition of viability [%]
Conditions	5 nM	50 nM	500 nM	5000 nM	50000 nM
DERL-7 (IL-2 2.5 ng/mL) [21]	-5.69	0.09	8.66	100	100
IMC-1 (IL-2 20 ng/mL) [22]	-3.55	-2.13	-12.2	-14.1	99.9
KAI3 (IL-2 2.5 ng/mL) [17]	-6.42	3	11.7	101	100
KHYG-1 (IL-2 2.5 ng/mL) [25]	-5.88	-5.42	-4.14	99.4	99.5
NK-92 (IL-2 2.5 ng/mL) [18]	-16.4	-10.7	-9.15	100	99.3
NK-YS (IL-2 2.5 ng/mL) [26]	-2.31	-3.08	-1.75	31.7	98.3
NKL (IL-2 2.5 ng/mL) [20]	-2.42	-9.08	-17.6	52.9	97.8
SNK-6 (IL-2 2.5 ng/mL) [16]	4.25	-11.5	-24.7	100	100
YT (IL-2 2.5 ng/mL) [23]	-7.41	-5.02	-6.62	99.5	99.9
[15]	-4.23	-7.77	-7.3	100	100
[19]	-24.1	-39.5	15.7	93.9	100
[24]	-14.2	-14	11.9	98.5	100
[27]	-5.68	1.61	1.47	96.5	99.9
[28]	-6.16	-7.86	-9.75	99.1	101

O=C(O)CNC(=O)c1c(O)c2ccccc2n(Cc2ccccc2)c1=O [IOX-2] (max concentration tested 50000 nM)
Conditions	drug sensitivity score
DERL-7 (IL-2 2.5 ng/mL) [6]	0.77
IMC-1 (IL-2 20 ng/mL) [7]	2.14
KAI3 (IL-2 2.5 ng/mL) [2]	0.01
KHYG-1 (IL-2 2.5 ng/mL) [10]	0.37
NK-92 (IL-2 2.5 ng/mL) [3]	0.62
NK-YS (IL-2 2.5 ng/mL) [11]	0.91
NKL (IL-2 2.5 ng/mL) [5]	1.32
SNK-6 (IL-2 2.5 ng/mL) [1]	3.58
YT (IL-2 2.5 ng/mL) [8]	0.14
[4]	0
[9]	0
[12]	0
[13]	0.04
[14]	1.12

percent inhibition of viability [%]
Conditions	5 nM	50 nM	500 nM	5000 nM	50000 nM
DERL-7 (IL-2 2.5 ng/mL) [21]	-0.5	5.58	5.28	-4.63	25.8
IMC-1 (IL-2 20 ng/mL) [22]	1.88	0.96	5.1	6.24	28.9
KAI3 (IL-2 2.5 ng/mL) [17]	-3.52	1.05	2.47	-3.92	11.8
KHYG-1 (IL-2 2.5 ng/mL) [25]	1.01	1.23	3.87	2.07	14.3
NK-92 (IL-2 2.5 ng/mL) [18]	-8.34	-11.4	3.46	-6.86	24.2
NK-YS (IL-2 2.5 ng/mL) [26]	0.04	-3.4	4.58	-1.43	25.9
NKL (IL-2 2.5 ng/mL) [20]	-6.3	-1.48	-3.38	1.11	28.3
SNK-6 (IL-2 2.5 ng/mL) [16]	5.46	-1.31	-7.77	8.49	43.1
YT (IL-2 2.5 ng/mL) [23]	-1.09	-0.73	1.54	-7.45	15.8
[15]	-0.06	6.04	5.91	6.68	23.3
[19]	1.89	-6.6	3	-20.1	3.21
[24]	3.1	-5.28	-1.2	-0.54	6.1
[27]	-14.4	0.63	-2.21	-3.15	4.77
[28]	-6.36	0.19	2.86	-4.87	13.1

CCCCC/C=C/C=C1/C(=O)C=C[C@@H]1C/C=C\CCCC(=O)O [15D-PGJ2] (max concentration tested 3000 nM)
Conditions	drug sensitivity score
DERL-7 (IL-2 2.5 ng/mL) [6]	0.17
IMC-1 (IL-2 20 ng/mL) [7]	0
KAI3 (IL-2 2.5 ng/mL) [2]	0.28
KHYG-1 (IL-2 2.5 ng/mL) [10]	0
NK-92 (IL-2 2.5 ng/mL) [3]	0.46
NK-YS (IL-2 2.5 ng/mL) [11]	0
NKL (IL-2 2.5 ng/mL) [5]	0
SNK-6 (IL-2 2.5 ng/mL) [1]	1.74
YT (IL-2 2.5 ng/mL) [8]	0.01
[4]	0
[9]	0.07
[12]	0.45
[13]	0.13
[14]	1.44

percent inhibition of viability [%]
Conditions	0.3 nM	3 nM	30 nM	300 nM	3000 nM
DERL-7 (IL-2 2.5 ng/mL) [21]	3.37	-0.28	-1.84	-0.56	14.4
IMC-1 (IL-2 20 ng/mL) [22]	-2.09	2.04	0.05	5.09	1.41
KAI3 (IL-2 2.5 ng/mL) [17]	-4.96	-2.91	-5.31	-1.28	16.5
KHYG-1 (IL-2 2.5 ng/mL) [25]	-5.02	1.78	4.62	3.59	4.59
NK-92 (IL-2 2.5 ng/mL) [18]	-11	-12	-5.46	5.82	13.3
NK-YS (IL-2 2.5 ng/mL) [26]	2.56	5.36	6.24	9.44	10.4
NKL (IL-2 2.5 ng/mL) [20]	-9.35	-3.21	-6.49	3.89	-15.1
SNK-6 (IL-2 2.5 ng/mL) [16]	1.92	3.18	18.9	6.05	19.9
YT (IL-2 2.5 ng/mL) [23]	-2.94	-0.98	-4.25	-6.3	12.1
[15]	-3.92	-2.07	0.09	7.83	19.8
[19]	6.38	-19	3.5	-8.64	11.8
[24]	8.24	-4.33	-3.39	-9.81	14
[27]	-13.3	-1.17	5.71	0.83	16.9
[28]	-15.9	-3.38	4.01	-2.88	14.8
